According to patent US20240115654A1, “INTRAVENOUS ADMINISTRATION OF ENGINEERED ANTIMICROBIAL AMPHIPHILIC PEPTIDES” (priority 2021, published 2024):
Like-named read-outs stand apart in the source and are kept apart here. Peptide text beside a SMILES is read from it.

Conditions: human, in vivo
[1] = single 1-hour infusion 0.05 mg/kg, Geometric Mean
[2] = single 1-hour infusion 0.05 mg/kg, Mean
[3] = single 1-hour infusion 0.05 mg/kg, Median
[4] = single 1-hour infusion 0.05 mg/kg, individual subjects
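Also: phase 1 study in human subjects given one IV dose of the peptide, enrolled in sequential ascending-dose cohorts and randomized to peptide or placebo.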

Procedure: Administration was a single 1-hour infusion.
Subjects were enrolled in sequential cohorts of peptide ascending dose levels and randomly assigned to receive a single IV administration of either peptide or placebo over 1 to 2 hours. […] In addition, the infusion volume was adjusted for Cohort 4 to maintain drug concentrations in line with Cohort 2
Blood samples for PK assessment were collected at pre-dose, at the midpoint of infusion, within 1 minute after the end-of-infusion and at 0.5, 1, 2, 4, 6, 8, 12, 20, 24, 36 and 48 hours after the end-of-infusion.
The pharmaceutical composition was stored at 2° C. to 8° C. for up to 14 days and then 15° C. to 25° C. for up to 48 hours for dosing.
Subjects were enrolled in sequential cohorts of peptide ascending dose levels and randomly assigned to receive a single IV administration of either peptide or placebo over 1 to 2 hours.

CC(C)[C@H](NC(=O)[C@H](Cc1c[nH]c2ccccc12)NC(=O)[C@H](CCCNC(=N)N)NC(=O)[C@H](CCCNC(=N)N)NC(=O)[C@@H](NC(=O)[C@@H](NC(=O)[C@H](CCCNC(=N)N)NC(=O)[C@@H](NC(=O)[C@@H](NC(=O)[C@H](CCCNC(=N)N)NC(=O)[C@H](CCCNC(=N)N)NC(=O)[C@H](Cc1c[nH]c2ccccc12)NC(=O)[C@@H](NC(=O)[C@H](CCCNC(=N)N)NC(=O)[C@H](CCCNC(=N)N)NC(=O)[C@@H](NC(=O)[C@H](CCCNC(=N)N)NC(=O)[C@H](CCCNC(=N)N)NC(=O)[C@@H](NC(=O)[C@H](Cc1c[nH]c2ccccc12)NC(=O)[C@H](CCCNC(=N)N)NC(=O)[C@@H](N)CCCNC(=N)N)C(C)C)C(C)C)C(C)C)C(C)C)C(C)C)C(C)C)C(C)C)C(=O)N[C@@H](CCCNC(=N)N)C(=O)N[C@@H](CCCNC(=N)N)C(N)=O [SEQ ID NO: 1] (H-RRWVRRVRRVWRRVVRVVRRWVRR-NH2)
clearance: 40.3 to 69.7 mL/min
AUC(0-inf) (0.05 mg/kg, AUC0-inf, 0.05 mg/kg 1-hr infusion): 1580 ng·h/mL
AUC(0-t) (0.05 mg/kg, AUC0-t, 0.05 mg/kg 1-hr infusion): 1280 ng·h/mL
AUC(0-inf) (0.05 mg/kg, AUC0-∞): 1580 ng·h/mL
Cmax (0.05 mg/kg, 0.05 mg/kg 1-hr infusion): 256 ng/mL
AUC(0-t) (0.05 mg/kg, mean AUC0-t): 1280 ng·h/mL
half-life (0.05 mg/kg, t1/2, 0.05 mg/kg 1-hr infusion): 444 min
AUC(0-inf) (0.5 mg/kg, AUC0-inf, 0.5 mg/kg 2-hr infusion): 9090 ng·h/mL
AUC(0-t) (0.5 mg/kg, AUC0-t, 0.5 mg/kg 2-hr infusion): 8330 ng·h/mL
Cmax (0.5 mg/kg, 0.5 mg/kg 2-hr infusion): 1830 ng/mL
half-life (0.5 mg/kg, t1/2, 0.5 mg/kg 2-hr infusion): 972 min
AUC(0-inf) (1 mg/kg, AUC0-∞): 21100 ng·h/mL
AUC(0-t) (1 mg/kg, mean AUC0-t): 21600 ng·h/mL
AUC(0-t) (AUC0-24, single 1-hour infusion 0.05 mg/kg, Geometric Mean): 1230 ng·h/mL
AUC(0-t) (AUC0-24, single 1-hour infusion 0.05 mg/kg, Mean): 1290 ng·h/mL
AUC(0-t) (AUC0-24, single 1-hour infusion 0.05 mg/kg, Median): 1350 ng·h/mL
AUC(0-inf) (AUC0-inf, single 1-hour infusion 0.05 mg/kg, Geometric Mean): 1600 ng·h/mL
AUC(0-inf) (AUC0-inf, single 1-hour infusion 0.05 mg/kg, Mean): 1610 ng·h/mL
AUC(0-inf) (AUC0-inf, single 1-hour infusion 0.05 mg/kg, Median): 1520 ng·h/mL
AUC(0-inf) (AUC0-inf, single 1-hour infusion 0.05 mg/kg, individual subjects): 1400 ng·h/mL
AUC(0-t) (AUC0-t, single 1-hour infusion 0.05 mg/kg, Geometric Mean): 1220 ng·h/mL
AUC(0-t) (AUC0-t, single 1-hour infusion 0.05 mg/kg, Mean): 1310 ng·h/mL
AUC(0-t) (AUC0-t, single 1-hour infusion 0.05 mg/kg, Median): 1350 ng·h/mL
CL/F [1]: 0.522 mL/min/kg
CL/F [2]: 0.525 mL/min/kg
CL/F [3]: 0.548 mL/min/kg
CL/F [4]: 0.595 mL/min/kg
Cmax [1]: 251 ng/mL
Cmax [2]: 256 ng/mL
Cmax [3]: 262 ng/mL
Tmax [1]: 1 h
Tmax [2]: 1 h
Tmax [3]: 1 h
Tmax [4]: 1 h
Tmax (single 1-hour infusion […], individual subjects): 1 h
half-life ([…], t1/2, […] 1-hr infusion): 630 min
half-life ([…], t1/2, […] 1-hr infusion (only 3 subjects)): 1190 min
half-life ([…], t1/2, […] 2-hr infusion): 792 min
AUC(0-t) (iv, 0.05 mg/kg, AUC0-t, 0.05 mg/kg IV 1-hr infusion): 1280 ng·h/mL
AUC(0-inf) (iv, 0.05 mg/kg, AUC0-∞, 0.05 mg/kg IV 1-hr infusion): 1580 ng·h/mL
AUC(0-t) (iv, 0.05 mg/kg, AUC(0-24), Actual mean, Phase 1 subjects, 0.05 mg/kg IV): 1290 ng·h/mL
Cmax (iv, 0.05 mg/kg, 0.05 mg/kg IV 1-hr infusion): 256 ng/mL
half-life (iv, 0.05 mg/kg, t1/2, 0.05 mg/kg IV 1-hr infusion): 442 min
AUC(0-t) (iv, 0.5 mg/kg, AUC0-t, 0.5 mg/kg IV 2-hr infusion): 8330 ng·h/mL
AUC(0-inf) (iv, 0.5 mg/kg, AUC0-∞, 0.5 mg/kg IV 2-hr infusion): 9090 ng·h/mL
Cmax (iv, 0.5 mg/kg, 0.5 mg/kg IV 2-hr infusion): 1830 ng/mL
half-life (iv, 0.5 mg/kg, t1/2, 0.5 mg/kg IV 2-hr infusion): 972 min
AUC(0-t) (iv, 1 mg/kg, AUC0-t, 1 mg/kg IV 4-hr infusion): 21600 ng·h/mL
AUC(0-inf) (iv, 1 mg/kg, AUC0-∞, 1 mg/kg IV 4-hr infusion): 21100 ng·h/mL
Cmax (iv, 1 mg/kg, 1 mg/kg IV 4-hr infusion): 2650 ng/mL
half-life (iv, 1 mg/kg, t1/2, 1 mg/kg IV 4-hr infusion): 1200 min
AUC(0-t) (iv, AUC0-24, Cohort 1, 0.05 mg/kg IV infusion, Geometric Mean): 1230 ng·h/mL
AUC(0-t) (iv, AUC0-24, Cohort 1, 0.05 mg/kg IV infusion, Mean): 1290 ng·h/mL
AUC(0-t) (iv, AUC0-24, Cohort 1, 0.05 mg/kg IV infusion, Median): 1350 ng·h/mL
AUC(0-t) (iv, AUC0-24, Cohort 1, 0.05 mg/kg IV infusion, cohort Geometric Mean): 1230 ng·h/mL
AUC(0-t) (iv, AUC0-24, Cohort 1, 0.05 mg/kg IV infusion, cohort Mean): 1290 ng·h/mL
AUC(0-t) (iv, AUC0-24, Cohort 1, 0.05 mg/kg IV infusion, cohort Median): 1350 ng·h/mL
AUC(0-t) (iv, AUC0-24, Cohort 4, 0.5 mg/kg IV infusion 2 hours, Geometric Mean): 6930 ng·h/mL
AUC(0-t) (iv, AUC0-24, Cohort 4, 0.5 mg/kg IV infusion 2 hours, Mean): 7390 ng·h/mL
AUC(0-t) (iv, AUC0-24, Cohort 4, 0.5 mg/kg IV infusion 2 hours, Median): 7270 ng·h/mL
AUC(0-t) (iv, AUC0-24, Cohort 4, 0.5 mg/kg IV, infusion 2 hours, cohort Geometric Mean): 6930 ng·h/mL
AUC(0-t) (iv, AUC0-24, Cohort 4, 0.5 mg/kg IV, infusion 2 hours, cohort Mean): 7390 ng·h/mL
AUC(0-t) (iv, AUC0-24, Cohort 4, 0.5 mg/kg IV, infusion 2 hours, cohort Median): 7270 ng·h/mL
AUC(0-t) (iv, AUC0-24, Cohort 5, 1 mg/kg IV infusion 4 hours, Geometric Mean): 17300 ng·h/mL
AUC(0-t) (iv, AUC0-24, Cohort 5, 1 mg/kg IV infusion 4 hours, Mean): 18000 ng·h/mL
AUC(0-t) (iv, AUC0-24, Cohort 5, 1 mg/kg IV infusion 4 hours, Median): 14800 ng·h/mL
AUC(0-inf) (iv, AUC0-inf, Cohort 1, 0.05 mg/kg IV infusion, Geometric Mean): 1600 ng·h/mL
AUC(0-inf) (iv, AUC0-inf, Cohort 1, 0.05 mg/kg IV infusion, Mean): 1610 ng·h/mL
AUC(0-inf) (iv, AUC0-inf, Cohort 1, 0.05 mg/kg IV infusion, Median): 1520 ng·h/mL
AUC(0-inf) (iv, AUC0-inf, Cohort 1, 0.05 mg/kg IV infusion, cohort Geometric Mean): 1600 ng·h/mL
AUC(0-inf) (iv, AUC0-inf, Cohort 1, 0.05 mg/kg IV infusion, cohort Mean): 1610 ng·h/mL
AUC(0-inf) (iv, AUC0-inf, Cohort 1, 0.05 mg/kg IV infusion, cohort Median): 1520 ng·h/mL
AUC(0-inf) (iv, AUC0-inf, Cohort 1, 0.05 mg/kg IV infusion, individual subject): 1400 ng·h/mL
AUC(0-inf) (iv, AUC0-inf, Cohort 1, 0.05 mg/kg IV infusion, individual subjects): 1400 ng·h/mL
AUC(0-inf) (iv, AUC0-inf, Cohort 4, 0.5 mg/kg IV infusion 2 hours, Geometric Mean): 8530 ng·h/mL
AUC(0-inf) (iv, AUC0-inf, Cohort 4, 0.5 mg/kg IV infusion 2 hours, Mean): 9200 ng·h/mL
AUC(0-inf) (iv, AUC0-inf, Cohort 4, 0.5 mg/kg IV infusion 2 hours, Median): 9540 ng·h/mL
AUC(0-inf) (iv, AUC0-inf, Cohort 4, 0.5 mg/kg IV, infusion 2 hours, cohort Geometric Mean): 8530 ng·h/mL
AUC(0-inf) (iv, AUC0-inf, Cohort 4, 0.5 mg/kg IV, infusion 2 hours, cohort Mean): 9200 ng·h/mL
AUC(0-inf) (iv, AUC0-inf, Cohort 4, 0.5 mg/kg IV, infusion 2 hours, cohort Median): 9540 ng·h/mL
AUC(0-inf) (iv, AUC0-inf, Cohort 5, 1 mg/kg IV infusion 4 hours, Geometric Mean): 21100 ng·h/mL
AUC(0-inf) (iv, AUC0-inf, Cohort 5, 1 mg/kg IV infusion 4 hours, Mean): 21300 ng·h/mL
AUC(0-inf) (iv, AUC0-inf, Cohort 5, 1 mg/kg IV infusion 4 hours, Median): 21000 ng·h/mL
AUC(0-inf) (iv, AUC0-inf, Cohort 5, 1 mg/kg IV infusion 4 hours, individual subject): 22100 ng·h/mL
AUC(0-t) (iv, AUC0-t, Cohort 1, 0.05 mg/kg IV infusion, Geometric Mean): 1220 ng·h/mL
AUC(0-t) (iv, AUC0-t, Cohort 1, 0.05 mg/kg IV infusion, Mean): 1310 ng·h/mL
AUC(0-t) (iv, AUC0-t, Cohort 1, 0.05 mg/kg IV infusion, Median): 1350 ng·h/mL
AUC(0-t) (iv, AUC0-t, Cohort 1, 0.05 mg/kg IV infusion, cohort Geometric Mean): 1220 ng·h/mL
AUC(0-t) (iv, AUC0-t, Cohort 1, 0.05 mg/kg IV infusion, cohort Mean): 1310 ng·h/mL
AUC(0-t) (iv, AUC0-t, Cohort 1, 0.05 mg/kg IV infusion, cohort Median): 1350 ng·h/mL
AUC(0-t) (iv, AUC0-t, Cohort 4, 0.5 mg/kg IV infusion 2 hours, Geometric Mean): 7830 ng·h/mL
AUC(0-t) (iv, AUC0-t, Cohort 4, 0.5 mg/kg IV infusion 2 hours, Mean): 8440 ng·h/mL
AUC(0-t) (iv, AUC0-t, Cohort 4, 0.5 mg/kg IV infusion 2 hours, Median): 8540 ng·h/mL
AUC(0-t) (iv, AUC0-t, Cohort 4, 0.5 mg/kg IV, infusion 2 hours, cohort Geometric Mean): 7830 ng·h/mL
AUC(0-t) (iv, AUC0-t, Cohort 4, 0.5 mg/kg IV, infusion 2 hours, cohort Mean): 8440 ng·h/mL
AUC(0-t) (iv, AUC0-t, Cohort 4, 0.5 mg/kg IV, infusion 2 hours, cohort Median): 8540 ng·h/mL
AUC(0-t) (iv, AUC0-t, Cohort 5, 1 mg/kg IV infusion 4 hours, Geometric Mean): 20400 ng·h/mL
AUC(0-t) (iv, AUC0-t, Cohort 5, 1 mg/kg IV infusion 4 hours, Mean): 21200 ng·h/mL
AUC(0-t) (iv, AUC0-t, Cohort 5, 1 mg/kg IV infusion 4 hours, Median): 17600 ng·h/mL
Cmax (iv, Cohort 1, 0.05 mg/kg IV infusion, Geometric Mean): 251 ng/mL
Cmax (iv, Cohort 1, 0.05 mg/kg IV infusion, Mean): 256 ng/mL
Cmax (iv, Cohort 1, 0.05 mg/kg IV infusion, Median): 262 ng/mL
Cmax (iv, Cohort 1, 0.05 mg/kg IV infusion, cohort Geometric Mean): 251 ng/mL
Cmax (iv, Cohort 1, 0.05 mg/kg IV infusion, cohort Mean): 256 ng/mL
Cmax (iv, Cohort 1, 0.05 mg/kg IV infusion, cohort Median): 262 ng/mL
Cmax (iv, Cohort 4, 0.5 mg/kg IV infusion 2 hours, Geometric Mean): 1770 ng/mL
Cmax (iv, Cohort 4, 0.5 mg/kg IV infusion 2 hours, Mean): 1830 ng/mL
